{"source": "patent US8535650B2", "about": "“Stabilized reverse micelle compositions and uses thereof” (Soligenix, Inc., priority 2001, dated 2013)", "key": {"in vivo [1]": {"test": "in vivo", "conditions": "Sprague-Dawley, rat, sc, 0.4 mg/kg", "protocol": "Sprague-Dawley rats (approximately weighing 120 grams each) were catheterized surgically with jugular and duodenal catheters. Each group of rats, 3-5 animals per group, were given 0.4-2.4 mg/kg of LHRH either as free in solution or incorporated in micelles. As further control, several groups of animals were given a solution of free LHRH subcutaneously at a dose of 0.4 mg/kg of body weight. Blood samples were collected at 0, 20, 40, 60, 90, 120, and 240 minutes following administration of LHRH or controls. The time 0 blood collection was obtained approximately 15 minutes before administration of LHRH formulations. Plasma samples were analyzed by a competitive ELISA assay as follows. Plastic 96 well plates were coated with anti-rabbit immunoglobulins followed by addition of rabbit anti-LHRH and biotinylated-LHRH with sample dilutions. Binding of biotinylated LHRH was assayed by development with BRP-avidin and color development with TMB (tetra-methyl-benzidine). Pharmacokinetic parameters were calculated from the data using WinNonLin software (Pharsight)."}, "[2]": {"test": "Bioavailability of hGH following intraduodenal administration in rats (plasma hGH by ELISA)", "format": "in vivo, Sprague-Dawley rats", "conditions": "600 micrograms hGH, FIG. 1", "source_text": "Each group of rats, 3-5 animals per group, received 600 micrograms of human growth hormone in Acconon CC-12 reverse micelle formulation or control formulations consisting of aqueous growth hormone or Acconon CC-12 water reverse micelle. Blood samples were obtained from the jugular catheter at the indicated times after administration. Plasma samples were obtained from the collected blood specimens and analyzed for the presence of hGH by an enzyme-linked immunosorbent assay (ELISA) (Alexon-Trend, BioCheck). The assay system utilizes polyclonal sheep anti-hGH for solid phase (microwells) immobilization, and mouse monoclonal anti-hGH in the antibody-enzyme (horseradish peroxidase) conjugate solution. […] After a 45-minute incubation at room temperature, the sample well was washed to remove unbound enzyme labeled antibody. […] The intensity of the yellow color is directly proportional to the concentration of hGH in the sample."}, "in vivo [3]": {"test": "in vivo", "conditions": "Sprague-Dawley, rat", "protocol": "Sprague-Dawley rats (approximately weighing 120 grams each) were catheterized surgically with jugular and duodenal catheters. Each group of rats, 4-5 animals per group, were given 0.4-3.6 mg/kg of leuprolide either as free in solution or incorporated in micelles. As further control, several groups of animals were given a solution of free leuprolide subcutaneously. Blood samples were collected at 0, 20, 40, 60, 90, 120, and 240 minutes following administration of leuprolide or controls. The time 0 blood collection was obtained approximately 15 minutes before administration of leuprolide formulations. The amount of leuprolide released into rat serum or leuprolide in formulation was determined by using competitive enzyme-linked immunosorbent assay (ELISA) (Peninsula Laboratories, Inc). The assay system utilizes goat anti-rabbit IgG for solid phase (microwells) immobilization. The test serum or formulation sample was allowed to react simultaneously with the coated antibody, rabbit anti-leuprolide and biotinylated leuprolide. The biotinylated leuprolide competes for the antibody binding sites with standard or the unknown sample leuprolide. After a two-hour (or overnight) incubation at room temperature, unbound biotinylated peptide was removed by washing, and streptavidin-conjugated horseradish peroxidase (SA-HRP) was added and allowed to bind the immobilized rabbit anti-leuprolide/biotinylated leuprolide complex. After washing away excess SA-HRP, 3,3′,5,5′-Tetramethylbenzidine (TMB) was added and incubated for 15 minutes, resulting in the development of a blue color. The addition of Stop Solution stops the reaction and converts the color to yellow. The intensity of the yellow color depends on the quantity of biotinylated leuprolide bound to the immobilized antibody: When more sample leuprolide competes for the limited antibody, less biotinylated leuprolide/SA-HRP can be immobilized, and less color is produced by the substrate."}, "in vivo [4]": {"test": "in vivo", "conditions": "both, beagle, dog, sc, 0.4 mg/kg", "protocol": "Beagle dogs (3 female and 3 male weighing 8-10 kg each) were catheterized surgically with duodenal catheters. For each treatment, the dogs were given 0.4-2.4 mg/kg of leuprolide either in solution or incorporated in micelles. The treatments were administered via the duodenal catheter. For the positive control, the dogs were given a solution of free leuprolide by subcutaneous injection. Blood samples were collected from cephalic catheters or the jugular vein at 0, 15, 30, 45, 60, 90, 120, 240, 360, 480, and 1440 minutes following administration of leuprolide or controls. […] The time 0 blood collection was obtained approximately 10 minutes before administration of leuprolide formulations. The amount of leuprolide released into dog serum was determined by using a competitive enzyme-linked immunosorbent assay (ELISA) from Peninsula Laboratories, Inc. which utilizes goat anti-rabbit IgG for solid phase (microwell) immobilization. The test serum was allowed to react simultaneously with the coated antibody, rabbit anti-leuprolide and biotinylated leuprolide. After two-hour incubation at room temperature, unbound biotinylated peptide was removed by washing, and streptavidin-conjugated horseradish peroxidase (SA-HRP) was added and allowed to bind the immobilized rabbit anti-leuprolide/biotinylated leuprolide complex. After washing away excess SA-HRP, 3,3′5,5′-Tetramethylbenzidine dihydrochloride (B) was added and incubated for 15 minutes, resulting in the development of a blue color. The addition of stop solution stops the reaction and converts the color to yellow. Leuprolide in the samples was quantified by non-linear regression analysis of the standard curve and sample optical density values. Pharmacokinetic parameters are calculated using a pharmacokinetic software with a noncompartmental model."}}, "data": [{"compound": "CC(C)C[C@H](NC(=O)CNC(=O)[C@H](Cc1ccc(O)cc1)NC(=O)[C@H](CO)NC(=O)[C@H](Cc1c[nH]c2ccccc12)NC(=O)[C@H](Cc1cnc[nH]1)NC(=O)[C@@H]1CCC(=O)N1)C(=O)N[C@@H](CCCNC(=N)N)C(=O)N1CCC[C@H]1C(=O)NCC(N)=O", "note": "[LHRH solution]", "values": [{"measurement": "AUC(0-inf)", "setting": "in vivo [1]", "value": 31.5, "unit": "ng·h/mL"}, {"measurement": "Cmax", "setting": "in vivo [1]", "value": "79 ± 51.2", "unit": "ng/mL"}, {"measurement": "bioavailability", "setting": "in vivo [1]", "value": 100, "unit": "%"}]}, {"compound": "aqueous growth hormone: purified human growth hormone dissolved in water, control formulation", "values": [{"measurement": "absorption of hGH", "setting": "[2]", "value": "little to no absorption"}]}, {"compound": "CCNC(=O)[C@@H]1CCCN1C(=O)[C@H](CCCNC(=N)N)NC(=O)[C@H](CC(C)C)NC(=O)[C@@H](CC(C)C)NC(=O)[C@H](Cc1ccc(O)cc1)NC(=O)[C@H](CO)NC(=O)[C@H](Cc1c[nH]c2ccccc12)NC(=O)[C@H](Cc1c[nH]cn1)NC(=O)[C@@H]1CCC(=O)N1", "note": "[Leuprolide solution, p-Glu-His-Trp-Ser-Tyr-D-Leu-Leu-Arg-Pro-NHC2H5]", "values": [{"measurement": "bioavailability", "setting": "in vivo [3]", "value": "~0.2", "unit": "%"}, {"measurement": "AUC(0-inf)", "setting": "in vivo [3]; 2.4 mg/kg", "value": 5.43, "unit": "ng·h/mL"}, {"measurement": "Cmax", "setting": "in vivo [3]; 2.4 mg/kg", "value": "6.3 ± 5.3", "unit": "ng/mL"}, {"measurement": "bioavailability", "setting": "in vivo [3]; 2.4 mg/kg", "value": "0.23 ± 0.12", "unit": "%"}, {"measurement": "AUC(0-inf)", "setting": "in vivo [3]; sc, 0.4 mg/kg", "value": 397, "unit": "ng·h/mL"}, {"measurement": "Cmax", "setting": "in vivo [3]; sc, 0.4 mg/kg", "value": "453 ± 94", "unit": "ng/mL"}, {"measurement": "bioavailability", "setting": "in vivo [3]; sc, 0.4 mg/kg", "value": 100, "unit": "%"}, {"measurement": "AUC(0-inf)", "setting": "in vivo [4]", "value": 905, "unit": "ng·h/mL"}, {"measurement": "Cmax", "setting": "in vivo [4]", "value": "412 ± 163", "unit": "ng/mL"}, {"measurement": "bioavailability", "setting": "in vivo [4]", "value": 100, "unit": "%"}]}]}
